Laboratory results reported in patent publication US8883801B2, “Substituted pyrazolo[1,5-a]pyrimidines as mTOR inhibitors” (Merck Sharp & Dohme Corp., priority 2010, dated 2014).
Like-named read-outs stand apart in the source and are kept apart here.

Experiments:
human mTOR enzyme = human mTOR enzyme (Homo sapiens, UniProt P42345); test: HTRF mTOR enzyme (kinase) assay; format: biochemical; settings: rated class; 5 μM ATP, 0.2 μM GST-S6K; read-out: hMTOR IC50
[1] = tested on: mTORC2 activity: phosphorylated AKT Ser473 (pAKT S473) in PC3 cells; test: mTOR target engagement assay, immunofluorescent cell-based, mTORC2 readout; settings: rated class, 90 min treatment
Method in brief: (§1)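 Read-out is immunofluorescence intensity, normalized to DMSO-only wells and fitted to a sigmoidal Hill equation for IC50. The mTORC1 arm probes phospho-4E-BP1 Thr37/46 and the mTORC2 arm phospho-AKT Ser473.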

[2] = tested on: mTORC1 activity: phosphorylated 4E-BP1 Thr37/46 (p4E-BP1 Thr37/46) in PC3 cells; test: mTOR target engagement assay, immunofluorescent cell-based, mTORC1 readout; settings: rated class, 90 min treatment, read-out: P4EBP1 IC50
Method in brief: as §1

human mTOR enzyme, sequence (P42345 1360-2549 limits assumed): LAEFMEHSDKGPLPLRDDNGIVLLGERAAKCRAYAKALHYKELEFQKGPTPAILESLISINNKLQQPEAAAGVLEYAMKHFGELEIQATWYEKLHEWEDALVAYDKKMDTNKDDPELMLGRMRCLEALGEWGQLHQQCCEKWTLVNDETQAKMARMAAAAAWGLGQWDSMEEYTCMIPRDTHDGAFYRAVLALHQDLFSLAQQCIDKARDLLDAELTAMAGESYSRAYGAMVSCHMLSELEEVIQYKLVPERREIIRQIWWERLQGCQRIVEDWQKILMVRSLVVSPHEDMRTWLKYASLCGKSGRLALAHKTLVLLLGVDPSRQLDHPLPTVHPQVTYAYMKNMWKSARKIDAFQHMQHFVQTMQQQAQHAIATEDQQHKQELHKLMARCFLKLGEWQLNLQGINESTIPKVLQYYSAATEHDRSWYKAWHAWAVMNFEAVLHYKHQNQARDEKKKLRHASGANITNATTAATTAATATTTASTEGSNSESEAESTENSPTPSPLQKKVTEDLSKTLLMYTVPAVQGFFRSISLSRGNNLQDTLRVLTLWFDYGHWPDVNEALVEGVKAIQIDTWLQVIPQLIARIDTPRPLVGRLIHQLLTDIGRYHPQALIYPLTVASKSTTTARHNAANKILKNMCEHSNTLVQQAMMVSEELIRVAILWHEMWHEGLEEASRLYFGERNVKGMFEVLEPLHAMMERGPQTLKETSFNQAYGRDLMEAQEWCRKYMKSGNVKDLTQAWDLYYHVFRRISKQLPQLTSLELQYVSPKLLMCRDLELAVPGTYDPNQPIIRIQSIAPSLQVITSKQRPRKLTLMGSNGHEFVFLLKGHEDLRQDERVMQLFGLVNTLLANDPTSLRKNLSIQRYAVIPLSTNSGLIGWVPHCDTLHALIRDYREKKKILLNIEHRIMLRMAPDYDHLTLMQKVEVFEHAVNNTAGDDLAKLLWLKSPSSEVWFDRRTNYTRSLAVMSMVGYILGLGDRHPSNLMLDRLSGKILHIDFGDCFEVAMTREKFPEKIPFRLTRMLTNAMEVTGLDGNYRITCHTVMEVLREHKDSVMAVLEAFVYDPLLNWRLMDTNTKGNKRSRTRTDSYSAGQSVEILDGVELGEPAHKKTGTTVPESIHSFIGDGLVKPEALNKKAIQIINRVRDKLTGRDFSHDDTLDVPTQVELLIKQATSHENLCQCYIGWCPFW

Compound `COCCO[C@]1(C(=N)N)CC[C@@H](c2nc3c(-c4cnn(-c5ccccc5)c4)cnn3c(N)c2S(C)(=O)=O)CC1` [Compound 120, (1R,4R)-4-(7-amino-6-(methylsulfonyl)-3-(1-phenyl-1H-pyrazol-4-yl)pyrazolo[1,5-a]pyrimidin-5-yl)-1-(2-methoxyethoxy)cyclohexanecarboximidamide] has an IC50 (human mTOR enzyme) of 1 to 100 nM, an IC50 ([1]; Homo sapiens, PC-3, 1.5 h) of 100 to 1000 nM and an IC50 ([2]; Homo sapiens, PC-3, 1.5 h) of 100 to 1000 nM.

`Nc1c(Br)c(C2CCC(O)(C(=O)O)CC2)nc2c(-c3ccc(-c4ccccc4)nc3)cnn12` (stereo not drawn) [Compound 131, 4-(7-amino-6-bromo-3-(6-phenylpyridin-3-yl)pyrazolo[1,5-a]pyrimidin-5-yl)-1-hydroxycyclohexanecarboxylic acid] was tested, and the IC50 (human mTOR enzyme) was 1 to 100 nM, the IC50 ([1]; Homo sapiens, PC-3, 1.5 h) was 1000 to 2000 nM and the IC50 ([2]; Homo sapiens, PC-3, 1.5 h) was 2000 to 5000 nM.

With `COCCO[C@]1(C(=O)O)CC[C@@H](c2nc3c(-c4cnc(-c5ccccc5)nc4)cnn3c(N)c2S(C)(=O)=O)CC1` [Compound 46, (1R,4R)-4-(7-amino-6-(methylsulfonyl)-3-(2-phenylpyrimidin-5-yl)pyrazolo[1,5-a]pyrimidin-5-yl)-1-(2-methoxyethoxy) cyclohexanecarboxylic acid] the IC50 (human mTOR enzyme) was 1 to 100 nM, the IC50 ([1]; Homo sapiens, PC-3, 1.5 h) was 5000 to 15000 nM and the IC50 ([2]; Homo sapiens, PC-3, 1.5 h) was 5000 to 15000 nM.

In the case of `COCCO[C@]1(C(=O)O)CC[C@@H](c2nc3c(-c4ccc(-c5ccccc5)nc4)cnn3c(N)c2Br)CC1` [Compound 64, (1R,4R)-4-(7-amino-6-bromo-3-(6-phenylpyridin-3-yl)pyrazolo[1,5-a]pyrimidin-5-yl)-1-(2-methoxyethoxy)cyclohexanecarboxylic acid], the IC50 (human mTOR enzyme) is reported as 1 to 100 nM, the IC50 ([1]; Homo sapiens, PC-3, 1.5 h) is reported as 100 to 1000 nM and the IC50 ([2]; Homo sapiens, PC-3, 1.5 h) is reported as 100 to 1000 nM.

`C[C@]1(C(=O)O)CC[C@@H](c2nc3c(-c4ccc(-c5ccccc5)nc4)cnn3c(N)c2C#N)CC1` [Compound 26, (1S,4S)-4-(7-amino-6-cyano-3-(6-phenylpyridin-3-yl)pyrazolo[1,5-a]pyrimidin-5-yl)-1-methylcyclohexanecarboxylic acid] was tested, and the IC50 (human mTOR enzyme) was 1 to 100 nM, the IC50 [1] was 1 to 100 nM and the IC50 [2] was 100 to 1000 nM.

With `COCCO[C@]1(C(=O)NO)CC[C@@H](c2nc3c(-c4ccc(-c5ccccc5)nc4)cnn3c(N)c2C(C)=O)CC1` [Compound 102, (1R,4R)-4-(6-acetyl-7-amino-3-(6-phenylpyridin-3-yl)pyrazolo[1,5-a]pyrimidin-5-yl)-N-hydroxy-1-(2-methoxyethoxy)-cyclohexane-carboxamide] the IC50 (human mTOR enzyme) was 1 to 100 nM, the IC50 ([1]; Homo sapiens, PC-3, 1.5 h) was 100 to 1000 nM and the IC50 ([2]; Homo sapiens, PC-3, 1.5 h) was 100 to 1000 nM.

With `COCCO[C@]1(C(=O)NN2CCOCC2)CC[C@@H](c2nc3c(-c4cnn(-c5ccccc5)c4)cnn3c(N)c2S(C)(=O)=O)CC1` [Compound 96, (1R,4R)-4-(7-amino-6-(methylsulfonyl)-3-(1-phenyl-1H-pyrazol-4-yl)pyrazolo[1,5-a]pyrimidin-5-yl)-1-(2-methoxyethoxy)-N-morpholinocyclohexane-carboxamide] the IC50 (human mTOR enzyme) was 1 to 100 nM, the IC50 ([1]; Homo sapiens, PC-3, 1.5 h) was 100 to 1000 nM and the IC50 ([2]; Homo sapiens, PC-3, 1.5 h) was 1000 to 2000 nM.

In the case of `COCCO[C@]1(C(=O)O)CC[C@@H](c2nc3c(-c4ccc(-c5nccs5)nc4)cnn3c(N)c2S(C)(=O)=O)CC1` [Compound 47, (1R,4R)-4-(7-amino-6-(methylsulfonyl)-3-(6-(thiazol-2-yl)pyridin-3-yl)pyrazolo[1,5-a]pyrimidin-5-yl)-1-(2-methoxyethoxy) cyclohexanecarboxylic acid], the IC50 (human mTOR enzyme) is reported as 1 to 100 nM, the IC50 ([1]; Homo sapiens, PC-3, 1.5 h) is reported as 2000 to 5000 nM and the IC50 ([2]; Homo sapiens, PC-3, 1.5 h) is reported as 2000 to 5000 nM.

In the case of `CO[C@]1(C(=O)O)CC[C@H](c2nc3c(-c4cnn(-c5ccccc5)c4)cnn3c(N)c2C(C)=O)CC1` [Compound 37, (1S,4S)-4-(6-acetyl-7-amino-3-(1-phenyl-1H-pyrazol-4-yl)pyrazolo[1,5-a]pyrimidin-5-yl)-1-methoxycyclohexane-carboxylic acid], the IC50 (human mTOR enzyme) is reported as 1 to 100 nM, the IC50 ([1]; Homo sapiens, PC-3, 1.5 h) is reported as 1 to 100 nM and the IC50 ([2]; Homo sapiens, PC-3, 1.5 h) is reported as 100 to 1000 nM.

`CO[C@]1(C(=O)O)CC[C@H](c2nc3c(-c4ccc(-c5ccccc5)nc4)cnn3c(N)c2C(C)=O)CC1` [Compound 34, (1S,4S)-4-(6-acetyl-7-amino-3-(6-phenylpyridin-3-yl)pyrazolo[1,5-a]pyrimidin-5-yl)-1-methoxycyclohexanecarboxylic acid] was tested, and the IC50 (human mTOR enzyme) was 1 to 100 nM, the IC50 ([1]; Homo sapiens, PC-3, 1.5 h) was 100 to 1000 nM and the IC50 ([2]; Homo sapiens, PC-3, 1.5 h) was 100 to 1000 nM.

In the case of `Nc1c(Br)c([C@H]2CC[C@](O)(CC(=O)O)CC2)nc2c(-c3cnn(-c4ccccc4)c3)cnn12` [Compound 78, 2-((1S,4S)-4-(7-amino-6-bromo-3-(1-phenyl-1H-pyrazol-4-yl)pyrazolo[1,5-a]pyrimidin-5-yl)-1-hydroxycyclohexyl)-acetic acid], the IC50 (human mTOR enzyme) is reported as 1 to 100 nM, the IC50 ([1]; Homo sapiens, PC-3, 1.5 h) is reported as 100 to 1000 nM and the IC50 ([2]; Homo sapiens, PC-3, 1.5 h) is reported as 100 to 1000 nM.

`COCCO[C@]1(c2noc(=O)[nH]2)CC[C@@H](c2nc3c(-c4cnn(-c5ccccc5)c4)cnn3c(N)c2S(C)(=O)=O)CC1` [Compound 121, 3-((1R,4R)-4-(7-amino-6-(methylsulfonyl)-3-(1-phenyl-1H-pyrazol-4-yl)pyrazolo[1,5-a]pyrimidin-5-yl)-1-(2-methoxyethoxy)cyclohexyl)-1,2,4-oxadiazol-5(4H)-one] showed an IC50 (human mTOR enzyme) of 1 to 100 nM, an IC50 ([1]; Homo sapiens, PC-3, 1.5 h) of 100 to 1000 nM and an IC50 ([2]; Homo sapiens, PC-3, 1.5 h) of 100 to 1000 nM.

With `COCCO[C@]1(C(=O)NS(C)(=O)=O)CC[C@@H](c2nc3c(-c4cnn(-c5ccccc5)c4)cnn3c(N)c2C(C)=O)CC1` [Compound 70, (1R,4R)-4-(6-acetyl-7-amino-3-(1-phenyl-1H-pyrazol-4-yl)pyrazolo[1,5-a]pyrimidin-5-yl)-1-(2-methoxyethoxy)-N-(methylsulfonyl)cyclohexanecarboxamide] the IC50 (human mTOR enzyme) was 1 to 100 nM, the IC50 ([1]; Homo sapiens, PC-3, 1.5 h) was 100 to 1000 nM and the IC50 ([2]; Homo sapiens, PC-3, 1.5 h) was 100 to 1000 nM.

Work on `CC(=O)c1c(C2CCC(O)(CO)CC2)nc2c(-c3ccc(-c4cscn4)nc3)cnn2c1N` (single isomer, unassigned) [Compound 144, 1-(7-amino-5-(4-hydroxy-4-(hydroxymethyl)-cyclohexyl)-3-(6-(thiazol-4-yl)pyridin-3-yl)pyrazolo[1,5-a]pyrimidin-6-yl)ethanone] yielded an IC50 (human mTOR enzyme) of 1 to 100 nM, an IC50 ([1]; Homo sapiens, PC-3, 1.5 h) of 100 to 1000 nM and an IC50 ([2]; Homo sapiens, PC-3, 1.5 h) of 100 to 1000 nM.

`COCCO[C@]1(c2nnn[nH]2)CC[C@@H](c2nc3c(-c4ccc(-c5ccccc5)nc4)cnn3c(N)c2S(C)(=O)=O)CC1` [Compound 119] gave an IC50 (human mTOR enzyme) of 1 to 100 nM, an IC50 ([1]; Homo sapiens, PC-3, 1.5 h) of 1000 to 2000 nM and an IC50 ([2]; Homo sapiens, PC-3, 1.5 h) of 2000 to 5000 nM.

Work on `COCCOC1(C(=O)NS(C)(=O)=O)CCC(c2nc3c(-c4cnn(-c5ccccc5)c4)cnn3c(N)c2S(C)(=O)=O)CC1` (stereo not drawn) [Compound 71, 4-(7-amino-6-(methylsulfonyl)-3-(1-phenyl-1H-pyrazol-4-yl)pyrazolo[1,5-a]pyrimidin-5-yl)-1-(2-methoxyethoxy)-N-(methylsulfonyl)cyclohexanecarboxamide] yielded an IC50 (human mTOR enzyme) of 1 to 100 nM, an IC50 ([1]; Homo sapiens, PC-3, 1.5 h) of 1000 to 2000 nM and an IC50 ([2]; Homo sapiens, PC-3, 1.5 h) of 1000 to 2000 nM.

For `CO[C@]1(C(=O)O)CC[C@@H](c2nc3c(-c4ccc(-c5ccccc5)nc4)cnn3c(N)c2Br)CC1` [Compound 29, (1R,4R)-4-(7-amino-6-bromo-3-(6-phenylpyridin-3-yl)pyrazolo[1,5-a]pyrimidin-5-yl)-1-methoxycyclohexane-carboxylic acid], the IC50 (human mTOR enzyme) was 1 to 100 nM, the IC50 ([1]; Homo sapiens, PC-3, 1.5 h) was 100 to 1000 nM and the IC50 ([2]; Homo sapiens, PC-3, 1.5 h) was 100 to 1000 nM.

`CO[C@]1(C(=O)O)CC[C@H](c2nc3c(-c4ccc(-c5ccccc5)nc4)cnn3c(N)c2Br)CC1` [Compound 28, (1S,4S)-4-(7-amino-6-bromo-3-(6-phenylpyridin-3-yl)pyrazolo[1,5-a]pyrimidin-5-yl)-1-methoxycyclohexanecarboxylic acid] gave an IC50 (human mTOR enzyme) of 1 to 100 nM, an IC50 ([1]; Homo sapiens, PC-3, 1.5 h) of 1 to 100 nM and an IC50 ([2]; Homo sapiens, PC-3, 1.5 h) of 100 to 1000 nM.

Compound `COCCO[C@]1(c2nnc(N)o2)CC[C@@H](c2nc3c(-c4cnn(-c5ccccc5)c4)cnn3c(N)c2S(C)(=O)=O)CC1` [Compound 108, 5-((1R,4R)-4-(7-amino-6-(methylsulfonyl)-3-(1-phenyl-1H-pyrazol-4-yl)pyrazolo[1,5-a]pyrimidin-5-yl)-1-(2-methoxyethoxy)cyclohexyl)-1,3,4-oxadiazol-2-amine] has an IC50 (human mTOR enzyme) of 1 to 100 nM, an IC50 ([1]; Homo sapiens, PC-3, 1.5 h) of 1 to 100 nM and an IC50 ([2]; Homo sapiens, PC-3, 1.5 h) of 100 to 1000 nM.

In the case of `COC[C@]1(C(=O)O)CC[C@H](c2nc3c(-c4ccc(-c5ccccc5)nc4)cnn3c(N)c2C(C)=O)CC1` [Compound 18, (1R,4R)-4-(6-acetyl-7-amino-3-(6-phenylpyridin-3-yl)pyrazolo[1,5-a]pyrimidin-5-yl)-1-(methoxymethyl)-cyclohexane-carboxylic acid], the IC50 (human mTOR enzyme) is reported as 1 to 100 nM, the IC50 ([1]; Homo sapiens, PC-3, 1.5 h) is reported as 1 to 100 nM and the IC50 ([2]; Homo sapiens, PC-3, 1.5 h) is reported as 100 to 1000 nM.

`COCCO[C@]1(C(=O)O)CC[C@@H](c2nc3c(-c4ccc(-c5ccccc5)nc4)cnn3c(N)c2S(C)(=O)=O)CC1` [Compound 44, (1R,4R)-4-(7-amino-6-(methylsulfonyl)-3-(6-phenylpyridin-3-yl)pyrazolo[1,5-a]pyrimidin-5-yl)-1-(2-methoxyethoxy) cyclohexanecarboxylic acid] gave an IC50 (human mTOR enzyme) of 1 to 100 nM, an IC50 ([1]; Homo sapiens, PC-3, 1.5 h) of 100 to 1000 nM and an IC50 ([2]; Homo sapiens, PC-3, 1.5 h) of 100 to 1000 nM.

Work on `COCCO[C@]1(C(=O)NOC)CC[C@@H](c2nc3c(-c4ccc(-c5ccccc5)nc4)cnn3c(N)c2S(C)(=O)=O)CC1` [Compound 105, (1R,4R)-4-(7-amino-6-(methylsulfonyl)-3-(6-phenylpyridin-3-yl)pyrazolo[1,5-a]pyrimidin-5-yl)-N-methoxy-1-(2-methoxyethoxy)-cyclohexane-carboxamide] yielded an IC50 (human mTOR enzyme) of 1 to 100 nM, an IC50 ([1]; Homo sapiens, PC-3, 1.5 h) of 1 to 100 nM and an IC50 ([2]; Homo sapiens, PC-3, 1.5 h) of 100 to 1000 nM.

In the case of `COCCO[C@]1(C(=O)NOC)CC[C@@H](c2nc3c(-c4ccc(-c5ccccc5)nc4)cnn3c(N)c2C(C)=O)CC1` [Compound 103, (1R,4R)-4-(6-acetyl-7-amino-3-(6-phenylpyridin-3-yl)pyrazolo[1,5-a]pyrimidin-5-yl)-N-methoxy-1-(2-methoxyethoxy)-cyclohexane-carboxamide], the IC50 (human mTOR enzyme) is reported as 1 to 100 nM, the IC50 ([1]; Homo sapiens, PC-3, 1.5 h) is reported as 100 to 1000 nM and the IC50 ([2]; Homo sapiens, PC-3, 1.5 h) is reported as 100 to 1000 nM.
